This is an account of results in US10858384B2, “Synthetic molecule constructs” (KODE BIOTECH LIMITED, priority 2004, dated 2020).

The nature of series [1]: Solubility of synthetic glycolipids in hot PBS. The series is classed as physicochemical. To be noted: hot PBS. From the text:
In the context of this description the phrase “water soluble” means a stable, single phase system is formed when the synthetic molecule construct is contacted with water or saline (such as PBS) in the absence of organic solvents or detergents, and the term “solution” has a corresponding meaning.
For use in the transformation of cells the first criterion that synthetic glycolipids must satisfy is that they are soluble in aqueous solvents, e.g. phosphate buffered saline.
Initial tests on the molecules were to establish solubility and thus eliminate those molecules that were unsuitable for use in the transformation of cells.

Series [2] relates to RBCs. Description: Detectable transformation ability of synthetic glycolipids (agglutination). To be noted: agglutination with the appropriate antibody. The format is cell-based. From the text: The synthetic glycolipid must also be able to insert into the membrane and be recognisable to the appropriate antibody for transformation to be detected by agglutination. Initial tests on the molecules were to establish solubility and thus eliminate those molecules that were unsuitable for use in the transformation of cells.

Series [3] concerns RBCs. Briefly: Evaluation of insertion of different lipid tails by agglutination with the relevant antisera. The format is cell-based. More on the design: scale not given here. To be noted: second series. From the text: Transformation of RBCs with synthetic glycolipids with different lipid tails was first evaluated (Tables 22 and 24).
For series [4], the system named is RBCs. Briefly: Insertion efficiency: post-transformation supernatant solutions, tube serology. The format is cell-based. How it is done: The post-transformation supernatant solutions (from Atri-sp-Ad-DOPE (I) at 0.08 mg/mL, 0.05 mg/mL and 0.03 mg/mL, and Btri-sp-Ad-DOPE (VI) at 0.6 mg/mL, 20 μL) were added neat and in a 1:2 dilution to washed, packed RBCs (60 μL). The tubes were incubated in a 37° C. waterbath for one hour, with mixing taking place every 15 minutes.
The transformed RBCs were washed 3× with PBS and then suspended in Cellstab™ at the appropriate concentration for serology testing.

Series [5] deals with RBCs. Description: Insertion efficiency: post-transformation solutions concentrated 20x, Diamed serology. The series is classed as cell-based. As to conditions: post-transformation solution concentrated 20×, from 0.60 mg/mL. The method, then: In addition, the post-transformation solutions were concentrated 20× and compared in parallel with the transformation solutions of known concentration. Only the post-transformation solutions derived from the 0.08 mg/mL Atri-sp-Ad-DOPE (I) and 0.6 mg/mL Btri-sp-Ad-DOPE (VI) solutions were tested.
Post-transformation solutions (20 μL) were dialysed (pore size 500 Da) against de-ionised water for 2 days. The samples were left to dry in a fumehood for 10 days. At the end of this time they were transferred into a rotavapor flask and set on the rotavapor to rotate under vacuum with no heat overnight. Samples were dried in a water bath at 40° C. and washed over into smaller vessels with chloroform-methanol 2:1 leaving significant amounts of dried cellular material. The chloroform-methanol 2:1 washings were dried down, washed over again into test-tubes with chloroform-methanol 2:1 and dried down. These samples were redissolved in 1 mL of 1× PBS and used for transformation experiments. The cellular material in the bottom of the flasks was washed out with water into another set of tubes.
The post-transformation solutions (from Atri-sp-Ad-DOPE (I) at 0.08 mg/mL and Btri-sp-Ad-DOPE (VI) at 0.6 mg/mL, 20 μL) were added to washed, packed RBCs (60 μL). […]

Series [6] concerns group O red blood cells (RBCs). Briefly: Tube serology of group O RBCs transformed at 37° C. with synthetic glycolipids. The format is cell-based, human. As to conditions: 0.25 mg/mL, Day 44. The method, then:
(§1) Washed packed group O red blood cells (RBCs) (3 parts by volume) and the synthetic glycolipid solution (1 part by volume, varying concentrations) were added to an eppendorf tube. The tube was incubated in a 37° C. waterbath for one hour, mixing every 15 minutes. […]
(§2) Tube serology and Diamed gel-card results for RBCs transformed with the different synthetic molecule constructs are provided in Table 38. Results for the stability of the RBCs transformed with the different synthetic glycolipids at different concentrations are provided in Tables 39 to 44.

For series [7], the system named is group O red blood cells (RBCs). Description: Diamed gel-card agglutination of group O RBCs transformed at 37° C. with synthetic glycolipids. The series is classed as cell-based, human. Set-up: scale not given here. To be noted: 0.25 mg/mL; Day 116; Cellstab. How it is done:
as §1, §2

Series [8] has as its system embryos. Description: Embryo modification, test for insertion by fluorescence. The format is cell-based. How it is done:
The embryo zona pellucida was removed by treating embryos with 0.5% pronase in a 37° C. oven for 6 minutes or until all zonas were removed. Micro-drops were prepared by adding 5 μl of synthetic glycolipid Atri-sp-Ad-DOPE (I) or Btri-sp-Ad-DOPE (VI), at a concentration of 1 mg/mL to a 45 μl drop of M2 media overlaid with mineral oil. All embryo groups were incubated in the 50 μl micro-drops for 1 hour at 37° C. Embryos from experimental and control groups were washed 3× with M2 media.
Embryos from experimental and control groups were placed into a micro-drop of corresponding antibody and incubated for 30 min at 37° C. Embryos from experimental and control groups were washed 3× with M2 media.
Embryos from all experimental and control groups were placed into micro-drops of anti-mouse Ig FITC (1:50 dilution anti-mouse Ig FITC in M2) and incubated for 30 min at 37° C. Embryos from experimental and control groups were washed 3× with M2 media. Embryos were mounted on microscope slides in a 5 μl drop of M2 and the drops overlaid with oil.
The slides were viewed under a fluorescence microscope.

Series [9] deals with endometrial cells and embryos. Briefly: Attachment of transformed endometrial cells to modified embryos. The series is classed as cell-based. To be noted: 15 minutes at 37° C. The method, then: Modified embryos (BioG-Avidin-BioIgG^B and BioG-Avidin-BioIgM^A) were prepared in accordance with the methods described in the specification accompanying the international application no. PCT/NZ03/00059 (published as WO03/087346).
Two concave glass slides were prepared, one with two wells of synthetic glycolipid Atri-sp-Ad-DOPE (I) inserted endometrial cells and the other with two wells of synthetic glycolipid Btri-sp-Ad-DOPE (VI) inserted endometrial cells.
The embryos were surrounded with endometrial cells. The wells were covered with mineral oil and incubated for 15 minutes at 37° C. Using a wide bore handling pipette each group of embryos were carefully transferred to a fresh drop of M2 media. The embryos were gently washed. The embryos were gently transferred into 2 μL of M2 media on a marked microscope slide. Each drop was overlaid with mineral oil
Under a central plane of focus on an Olympus microscope the number of endometrial cells adhered to the embryos in each group was assessed. The number of cells adhered to each embryo was recorded.

For `CCCCCCCC/C=C\CCCCCCCC(=O)OC[C@H](COP(=O)(O)OCCNC(=O)CCCCC(=O)NCCCO[C@@H]1O[C@H](CO)[C@H](O)[C@H](O[C@H]2O[C@H](CO)[C@H](O)[C@H](O)[C@H]2O)[C@H]1O[C@@H]1O[C@@H](C)[C@@H](O)[C@@H](O)[C@@H]1O)OC(=O)CCCCCCC/C=C\CCCCCCCC` [Btri-sp-Ad-DOPE (VI)], the Water solubility result in [1] was “Yes”. In [2], the Detectable transformation ability entry is given as “Yes”. Moreover, the Agglutination score was 0 in series [3] (60 μg/mL, Alba anti-B); 0 in [3] (60 μg/mL, Bio anti-B); 0 in series [3] (125 μg/mL, Alba anti-B); 0 in [3] (125 μg/mL, Bio anti-B). In addition, the “Score (tube serology)” value in series [4] (1:2, pre-trans conc 0.60 mg/mL) was 0; in series [4] (neat, pre-trans conc 0.60 mg/mL) it was “vw+”. For the same molecule, the “Score (Diamed serology)” value in series [5] is recorded as 0. Further, the “Agglutination, manual tube serology, Bioclone anti-B” value in series [6] (Alsevers) was “w+”; in [6] (Cellstab), “^‡”. In addition, the “Agglutination, Diamed gel-cards, Albaclone anti-B” value in series [7] is listed as 0. The “Transformation of embryos visualised by fluorescence” value in [8] (1 mg/mL stock in micro-drop, 1 hour 37° C.) is reported as “negative result”. Besides, the “Fluorescence score after incubation with IgFITC Probe” value in series [8] (embryos, inserted antigen 1 mg/mL, 1 hour at 37° C., 1° antibody Anti-B Bioclone, anti-mouse Ig FITC 1:50) was 0. For the same molecule, the figures for the “Average number of endometrial cells attached to modified embryos” value in series [9] (embryos modified with BioG-Avidin-BioIgG^B) and in series [9] (embryos modified with BioG-Avidin-BioIgM^A) were 6.7 and 3.4, respectively.
